Experimental data as given in patent US8999956B2, “N-[(het)arylalkyl)] pyrazole(thio)carboxamides and their heterosubstituted analogues” (Bayer Intellectual Property GmbH, priority 2010, dated 2015).
Read-outs that look alike come from different tables or passages of the source.

How the values were obtained:
Sphaerotheca fuliginea = assay: In vivo preventive test on Sphaerotheca fuliginea (cucumber); details: 500 ppm of active ingredient, evaluated 7 days after inoculation
Summary of the method: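 Young cucumber plants sprayed with compound (in DMF with alkylarylpolyglycolether emulsifier, diluted in water) at the stated application rate. Inoculated one day later with aqueous Sphaerotheca fuliginea spore suspension. Plants then held in greenhouse at approximately 23° C and approximately 70% relative humidity.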

Alternaria solani = assay: In vivo preventive test on Alternaria solani (tomato); details: 500 ppm of active ingredient, evaluated 7 days after inoculation
Summary of the method: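 Young tomato plants sprayed preventively with compound in DMF/alkylarylpolyglycolether emulsion diluted in water to the stated rate. Inoculation with aqueous Alternaria solani spore suspension one day after treatment.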

Pyrenophora teres = assay: In vivo preventive test on Pyrenophora teres (barley); details: 500 ppm of active ingredient, evaluated 7-9 days after inoculation
Summary of the method: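 Compound formulated in N,N-dimethylformamide with alkylaryl polyglycol ether emulsifier and diluted in water, then sprayed on young barley plants at the stated application rate. Plants inoculated one day later with aqueous Pyrenophora teres spore suspension, testing preventive protection.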

Venturia inaequalis = assay: In vivo preventive test on Venturia inaequalis (apple scab); details: 100 ppm of active ingredient, evaluated 10 days after inoculation
Summary of the method: (§1)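 Young plants sprayed preventively at the stated application rate with compound dissolved in acetone/N,N-dimethylacetamide plus alkylaryl polyglycol ether emulsifier and diluted with water to the desired concentration.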

Septoria tritici = assay: In vivo preventive test on Septoria tritici (wheat); details: 500 ppm of active ingredient, evaluated 21 days after inoculation
Summary of the method: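 Compound formulated in N,N-dimethylacetamide with alkylaryl polyglycol ether emulsifier and diluted in water to the stated rate. Young wheat plants sprayed preventively; after the deposit dried, they were inoculated with a Septoria tritici spore suspension.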

[1] = test system: Blumeria graminis fsp. hordei; assay: In vivo preventive test on Blumeria graminis (barley); details: 500 ppm of active ingredient, evaluated 7 days after inoculation
Summary of the method: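 Active compound taken up in N,N-dimethylacetamide with alkylaryl polyglycol ether emulsifier, then diluted in water to the desired concentration. Young barley plants sprayed at the stated application rate; once the coating had dried, plants were dusted with Blumeria graminis f. sp. hordei spores.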

Fusarium graminearum = details: in vivo
Leptosphaeria nodorum = assay: In vivo preventive test on Leptosphaeria nodorum (wheat); details: 500 ppm of active ingredient, evaluated 7-9 days after inoculation
Summary of the method: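 Compound formulated in N,N-dimethylacetamide with alkylaryl polyglycol ether emulsifier and diluted with water. Young wheat plants were sprayed at the stated application rate, then inoculated one day later with an aqueous spore suspension of L. nodorum.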

Uromyces appendiculatus = assay: In vivo preventive test on Uromyces appendiculatus (beans); details: 100 ppm of active ingredient, evaluated 10 days after inoculation
Summary of the method: as §1

Puccinia triticina = assay: In vivo preventive test on Puccinia triticina (wheat); details: Table K, 500 ppm of active ingredient, evaluated 8 days after inoculation
Botrytis cinerea = assay: In vivo preventive test on Botrytis cinerea (beans)
Summary of the method: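 Young bean plants sprayed preventively with compound in acetone/dimethylacetamide/emulsifier diluted in water; after drying, each leaf inoculated with 2 agar pieces bearing Botrytis cinerea. Kept dark at 20° C, 100% humidity; lesion size scored at 2 days as % efficacy (0% = untreated, 100% = no disease).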

[2] = test system: aflatoxines produced by Aspergillus parasiticus; assay: microbe, parasite or virus in culture; format: cell-based
Aspergillus parasiticus = assay: microbe, parasite or virus in culture; format: cell-based
[3] = log P by HPLC on reversed-phase column (EEC Directive 79/831 Annex V.A8); format: physicochemical
Experimental: In table 1, the log P values were determined in accordance with EEC Directive 79/831 Annex V.A8 by HPLC (High Performance Liquid Chromatography) on a reversed-phase column (C18), using the method described below: Temperature: 40° C.; […]

Phakopsora pachyrhizi = assay: In vivo protective test on Phakopsora pachyrhizi (soybeans); details: Table N, 250 ppm of active ingredient, evaluated 11 days after inoculation
[4] = Table L, 500 ppm of active ingredient, lesion size 2 days after inoculation

| SMILES | Efficacy (Sphaerotheca fuliginea) | Efficacy (Alternaria solani) | Efficacy (Pyrenophora teres) | Efficacy (Venturia inaequalis) | Efficacy (Septoria tritici) | Efficacy [1] | Efficacy (Fusarium graminearum) | Efficacy (Leptosphaeria nodorum) | Efficacy (Uromyces appendiculatus) | Efficacy (Puccinia triticina) | Efficacy (Botrytis cinerea; [4]) | % Inhibition of Aflatoxin at 50 μM [2] | % Inhibition of fungal growth at 50 μM (Aspergillus parasiticus) | logP [3] | % Inhibition of Aflatoxin at 50 μM ([2]; 50 µM) | % Inhibition of fungal growth at 50 μM (Aspergillus parasiticus; 50 µM) | Efficacy (Phakopsora pachyrhizi) | Efficacy (Botrytis cinerea; 500 ppm of active ingredient, lesion size 2 days after inoculation) | Efficacy (Botrytis cinerea; Table L4, dose 500 ppm, comparison with des-fluoro analogue) |
| --- | --- | --- | --- | --- | --- | --- | --- | --- | --- | --- | --- | --- | --- | --- | --- | --- | --- | --- | --- |
| Cn1nc(C(F)F)c(C(=O)N(C2CC2)C2CCCCC2Cc2ccccc2)c1F (mixture of isomers) [Example 243] | 100% | 100% | 100% | 100% | 100% | 100% | 100% | 100% | 98% | 100% | 90% | 100% | 100% |  |  |  |  |  |  |
| CC(CCc1ccc(Cl)c(Cl)c1)N(C(=O)c1c(C(F)F)nn(C)c1F)C1CC1 (racemic) [Example 129] | 100% | 100% | 100% | 100% | 80% | 100% | 100% | 100% | 99% | 70% |  | 100% | 100% | 4.44 |  |  |  |  |  |
| Cn1nc(C(F)F)c(C(=O)N(CCOc2c(Cl)cccc2Cl)C2CC2)c1F [Example 162] | 95% |  | 95% |  | 90% | 100% | 100% | 90% |  | 80% |  |  |  | 3.55 | 100% | 100% |  |  |  |
| CC(COc1ccc(Cl)cc1Cl)N(C(=O)c1c(C(F)F)nn(C)c1F)C1CC1 (centres unmarked) [Example 187] | 100% |  | 100% | 100% | 100% | 100% | 100% | 90% | 95% | 95% |  | 100% | 100% | 4.16 |  |  |  |  |  |
| CC(CCc1ccccc1C(F)(F)F)N(C(=O)c1c(C(F)F)nn(C)c1F)C1CC1 (centres unmarked) [Example 221] | 100% | 100% | 95% | 100% | 100% | 100% | 100% |  | 100% | 100% |  | 100% | 100% | 4.09 |  |  | 80% |  |  |
| Cn1nc(C(F)F)c(C(=O)N(C2CC2)C2CCCCC2Oc2ccccc2)c1F (centres unmarked) [Example 244] | 100% | 100% | 95% | 100% | 100% | 100% | 100% | 95% | 100% | 100% | 88% |  |  | 3.89 | 99% | 82% | 98% | at least 85% | 88% |
| Cn1nc(C(F)F)c(C(=O)N(C[Si](C)(C)Cc2ccccc2)C2CC2)c1F [Example 288] | 94% | 100% | 100% | 100% | 90% | 100% | 100% | 100% | 100% | 95% | 100% | 100% | 99% | 4.03 |  |  |  |  |  |
